Results on six molecules are retold here after patent US4824860A, “Treatment of Parkinsons disease” (priority 1987, dated 1989).

Bounds are passed on as bounds.

The test system of one series is dopamine D1 receptors. Description: Receptor binding studies using rat brain: dopamine D1.
For the next series, the system named is 5HT1 receptors. Description: Receptor binding studies using rat brain: 5HT1.
Series [1] in a line: Anxiolytic activity in the mouse using a black and white test box (test 9). The class given is in vivo. From the text:
9. Anxiolytic activity in the mouse using a black and white test box.

Series [2] is described as follows: Anti-depressant activity in the mouse using the Porsolt test (test 8). The class given is in vivo. As to conditions: mice. The source says:
8. Measurement of anti-depressant activity in the mouse using the `Porsolt Test`.

The next series concerns MPTP-treated marmoset. Description: MPTP-treated marmoset model of anti-Parkinson activity (test 10). The series is classed as in vivo. The source says:
10. MPTP-treated marmoset model. A test for anti-Parkinson activity.
(i) Parkinsonism-like motor deficits (hypokinesia and bradykinesia) were induced in marmosets by the intranigral infusion of 1-methyl-4-phenyl-1,2,3,6-tetrahydropyridine (MPTP) for 13 days via an implanted injection unit and osmotic minipump (Test 10). […] Drug assessments were begun after 7-10 days of infusion.

Series [3] can be described thus: Rat spontaneous locomotor activity using photocell cages: measurement of stereotypy (test 5). The series is classed as in vivo. From the text: 5. Rat spontaneous locomotor activity using individual cages equipped with photocells: measurement of stereotypy.
Series [4] can be described thus: Measurement of stereotyped behaviour in the mouse (test 4). The class given is in vivo. The source says: 4. Measurement of stereotyped behaviour in the mouse.
The nature of series [5]: Mouse spontaneous locomotor activity using individual cages equipped with photocells (test 1). As to conditions: for dose profile of effect on locomotor activity: 'in these tests' (locomotor tests 1-3), inhibition at low, stimulation at high dose. The class given is in vivo. From the text: 1. Mouse spontaneous locomotor activity using individual cages equipped with photocells.

The nature of series [6]: Asymmetry and circling after unilateral administration into the extrapyramidal caudate-putamen (striatum) (test 7). The class given is in vivo, rat. From the text: 7. Effect on observed locomotor activity following direct administration into the extrapyramidal caudate-putamen (striatum). A test for anti-Parkinsonism potential.
Series [7] can be described thus: Mouse spontaneous locomotor activity using treadwheels (test 2). The series is classed as in vivo. From the text:
2. Mouse spontaneous locomotor activity using treadwheels.

Series [8] in a line: Hyperactivity following direct administration into the mesolimbic nucleus accumbens of the rat (test 6). The class given is in vivo. The source says:
6. Measurement of hyperactivity following direct administration into the mesolimbic nucleus accumbens of the rat. An indicator of anti-depressant activity.
Enhancement of locomotor activity by amphetamine and other dopamine agonists is difficult to measure because it is complicated by the development of stereotypies. […] Direct action of a compound to cause hyperactivity following administration into the mesolimbic nucleus accumbens is considered to be indicative of anti-depressant activity.

The nature of series [9]: Mouse spontaneous locomotor activity measuring climbing frame behaviour (test 3). The class given is in vivo. From the text:
3. Mouse spontaneous locomotor activity measuring climbing frame behaviour.

[10] abbreviates: 0.1-1 mg/kg i.p., separate study.
Where [11] appears, read: 10 μg injected directly into the mesolimbic nucleus accumbens.
The mark [12] stands for this setting: 0.05 mg/kg s.c., mean n=4, P<0.05.
Setting [13] is: 0.05 mg/kg s.c., mean of responding animals only.
Setting [14] is: 0.1 mg/kg s.c., mean n=4, P<0.01.
Where [15] appears, read: 1.0 mg/kg s.c., mean n=4, P<0.01.

For `CCCN1C[C@H](CSC)C[C@@H]2c3cccc4[nH]cc(c34)C[C@H]21` [pergolide], the “affinity for dopamine D1 receptors” value in the series on dopamine D1 receptors is “bound to dopamine D1 receptors”. Besides, in the series on 5HT1 receptors, the “affinity for 5HT1 receptors” value is recorded as “showed affinity”.
As to `CC(C)C[C@H]1C(=O)N2CCC[C@H]2[C@]2(O)O[C@](NC(=O)[C@@H]3C=C4c5cccc6[nH]c(Br)c(c56)C[C@H]4N(C)C3)(C(C)C)C(=O)N12` [bromocriptine, reference compound], in series [1] (setting [10]), the “investigatory activity in the black area” value is “statistically significant increase in investigatory activity in the black area” and the light aversion result was “no change in the light aversion”. Besides, in the series with 5HT1 receptors, the “affinity for 5HT1 receptors” value is given as “showed affinity”. Also, the swimming time entry in series [2] (0.1-1 mg/kg i.p., effect at the higher dose) is on record as “statistically significant reduction in swimming time”. Further, the MPTP-induced motor deficits entry in the series with MPTP-treated marmoset (0.1 mg/kg s.c.) is “little effect”.
`CN1CCc2cccc3c2[C@H]1Cc1ccc(O)c(O)c1-3` [apomorphine, reference compound]: the stereotypy entry in series [3] (rat, 2.0 mg/kg s.c., continuous biting, gnawing and licking) is given as “marked stereotyped behaviour”; in [4] (mouse, 2.0 mg/kg s.c., continuous biting, gnawing and licking) it was “marked stereotyped behaviour”. The “dose profile of effect on locomotor activity” value in series [5] is reported as “biphasic activity”. Further, in series [6] (up to 50 μg unilaterally into caudate-putamen), the “asymmetry and circling behaviour” value was “inactive”.
For `CCCN(CCC)CCc1cccc2c1CC(=O)N2.Cl` [Compound A, 4-(2-di-n-propylaminoethyl)-2-(3H)-indolone hydrochloride], in series [1] (0.1-10 mg/kg i.p.), the “period in the black area” value is listed as “correspondingly reduced period in the black area”. Further, in [1] (0.1-10 mg/kg i.p.), the “time spent in the white section” value is “statistically significant increase in the time spent in the white section”. The stereotypy entry in series [3] (rat, 1.0, 10.0 and 100 mg/kg i.p., only periodic sniffing) was “no dose dependent stereotypies”; in [4] (mouse, 1.0, 10.0 and 100 mg/kg i.p., only periodic sniffing), “no dose dependent stereotypies”. Besides, the spontaneous locomotion result in series [3] (rat, 10.0 and 100.0 mg/kg i.p., P<0.001) is “dose-related increases in spontaneous locomotion”; in series [8] (1.0 μg into the nucleus accumbens, tendency to inhibition in first 10 minutes), “ineffective”; in [8] (setting [11]), “marked (P<0.001) increase in spontaneous locomotion”. For the same molecule, the “duration of increase in spontaneous locomotion” value in series [3] (rat, higher dose (100.0 mg/kg i.p.)) was > 2.5 h. The locomotor activity entry in series [7] (treadwheel test, 100 mg/kg, P<0.001) is “Stimulation of locomotor activity”; in series [5] (photocell test, 100 mg/kg, P<0.001) it was “Stimulation of locomotor activity”; in [9] (100 mg/kg, no stimulation) it was “original inhibition was reversed”. Further, the spontaneous locomotor activity entry in series [7] (treadwheels, 1.0 and 10.0 mg/kg i.p.) was “inhibition of spontaneous locomotor activity”; in series [5] (photocell cages, 1.0 and 10.0 mg/kg i.p., statistically significant (P<0.01-0.001) at 10 mg/kg), “inhibition of spontaneous locomotor activity”; in series [9] (1.0 and 10.0 mg/kg i.p., statistically significant at 1.0 mg/kg), “inhibition of spontaneous locomotor activity”. Moreover, in [2] (0.1-10 mg/kg i/p.), the anti-depressant activity entry is on record as “statistically significant (P<0.05) anti-depressant activity”. Moreover, the “anti-depressant activity compared with amitriptyline” value in series [2] (amitriptyline 2.4-40 mg/kg i.p.) was “greater than amitriptyline”. Besides, the “asymmetry and circling behaviour” value in series [6] (0.01-10.0 μg unilaterally into caudate-putamen, statistically significant at 1.0 and 10.0 μg) is “marked contralateral asymmetry and circling behaviour”. Also, the “% time in head movements” value in the series on MPTP-treated marmoset (0.01 mg/kg s.c., mean n=4) was 26%; with MPTP-treated marmoset (setting [12]), 36%; in the series with MPTP-treated marmoset (setting [13]) it was 80%; in the series with MPTP-treated marmoset (setting [14]), 83%; in the series on MPTP-treated marmoset (setting [15]) it was 84%. The “% time spent in LMA” value is recorded as 4% in the series on MPTP-treated marmoset (0.01 mg/kg s.c., mean n=4); 12% with MPTP-treated marmoset (setting [12]); 23% in the series with MPTP-treated marmoset (setting [13]); 29% in the series with MPTP-treated marmoset (setting [14]); 28% in the series on MPTP-treated marmoset (setting [15]). The “LMA (% control)” value with MPTP-treated marmoset (0.01 mg/kg s.c., mean n=4) came to 26 % control; in the series with MPTP-treated marmoset (setting [12]), 47 % control; in the series on MPTP-treated marmoset (setting [13]), 70 % control; in the series with MPTP-treated marmoset (setting [14]) it was 93 % control; in the series with MPTP-treated marmoset (setting [15]), 103 % control. In addition, the development of tolerance result in the series on MPTP-treated marmoset (0.1, 1.0 mg/kg s.c. twice daily for 7 days) was “no development of tolerance”. Further, in the series with MPTP-treated marmoset (MPTP marmosets, 0.05-1.0 mg/kg s.c., at 0.05 mg/kg 1 or 2 marmosets did not respond), the motor behaviour entry was “fully restored normal motor behaviour”. Besides, the “movements in the limbs, trunk, head and neck” value with MPTP-treated marmoset (MPTP marmosets, s.c., most marked effect) is given as “full restoration of normal movements”. Besides, in the series on MPTP-treated marmoset (oral, each of 0.1, 0.5 or 1.0 mg/kg, seven listed motor deficits), the MPTP-induced motor deficits entry is on record as “Partial reversal”. In addition, the response result in the series on MPTP-treated marmoset (oral, highest dose 1.0 mg/kg, n=3) is reported as “supramaximal”; with MPTP-treated marmoset (oral, lowest dose 0.1 mg/kg, n=2), “submaximal”. The emesis result with MPTP-treated marmoset (oral, the two lower doses (0.1, 0.5 mg/kg)) is reported as “No emesis”.
Consider `CC(N)Cc1ccccc1` (stereo not drawn) [amphetamine, reference compound], for which the stereotypy result is “marked stereotyped behaviour” in series [3] (rat, doses up to 10.0 mg/kg i.p., continuous biting, gnawing and licking); “marked stereotyped behaviour” in [4] (mouse, doses up to 10.0 mg/kg i.p., continuous biting, gnawing and licking). Further, the spontaneous locomotion result in [8] (setting [11]) is recorded as “equally effective”. In addition, the “dose profile of effect on locomotor activity” value in [5] is listed as “biphasic activity”. In addition, the “asymmetry and circling behaviour” value in [6] (up to 100 μg unilaterally into caudate-putamen) was “inactive”.
As for `N[C@@H](Cc1ccc(O)c(O)c1)C(=O)O` [L-DOPA, reference compound], in the series with MPTP-treated marmoset (12.5 mg/kg i.p. 30 min. pretreatment, after benserazide 12.5 mg/kg s.c. 90 min. pretreatment), the MPTP-induced motor deficits result is “restored MPTP-induced motor deficits”. In the series with MPTP-treated marmoset (L-DOPA 12.5 mg/kg i.p. after benserazide 12.5 mg/kg s.c., versus 0.1 mg/kg s.c. Compound A), the “effectiveness compared with Compound A” value is listed as “less effective than 0.1 mg/kg s.c. Compound A”.
